From patent US9758459B2, “Allosteric modulators of factor XIa as anticoagulant agents” (VIRGINIA COMMONWEALTH UNIVERSITY, priority 2012, dated 2017)
Where “and” joins values, the source holds several entries; their conditions need not be identical. Identical values can stand only once. Like-named read-outs stand apart in the source and are kept apart here.

How the values were obtained:
human factor XIa = biological target: T1, human factor XIa (Homo sapiens, UniProt P03951); test: Direct inhibition of factor XIa, chromogenic substrate S-2366 hydrolysis assay; type: biochemical; details: for IC50: read-out: IC50 (converted)
T1 construct: purchased Haematologic Technologies (Essex Junction, Vt.); host or cells: human plasma
T1 sequence (P03951 19-387 limits assumed): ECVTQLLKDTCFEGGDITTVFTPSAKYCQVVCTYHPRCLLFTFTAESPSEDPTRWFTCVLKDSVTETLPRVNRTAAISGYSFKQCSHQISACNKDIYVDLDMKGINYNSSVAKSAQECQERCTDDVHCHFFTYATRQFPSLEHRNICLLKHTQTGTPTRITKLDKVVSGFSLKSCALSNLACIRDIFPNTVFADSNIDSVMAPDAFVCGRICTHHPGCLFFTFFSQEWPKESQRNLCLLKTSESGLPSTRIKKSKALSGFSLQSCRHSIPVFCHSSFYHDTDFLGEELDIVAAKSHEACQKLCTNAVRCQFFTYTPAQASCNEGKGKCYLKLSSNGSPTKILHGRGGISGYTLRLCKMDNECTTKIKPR
T1 sequence (P03951 388-625 limits assumed): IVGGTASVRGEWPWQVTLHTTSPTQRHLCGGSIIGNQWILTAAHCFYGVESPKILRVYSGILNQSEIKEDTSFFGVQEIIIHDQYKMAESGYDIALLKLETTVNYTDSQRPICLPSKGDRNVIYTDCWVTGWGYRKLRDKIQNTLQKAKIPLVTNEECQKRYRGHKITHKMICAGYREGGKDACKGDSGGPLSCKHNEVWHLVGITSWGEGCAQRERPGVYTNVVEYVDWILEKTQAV
Description: (§1) Solvent A consisted of 25 mM n-hexylamine in water containing 0.1% (v/v) formic acid, while solvent B consisted of 25 mM n-hexylamine in acetonitrile-water mixture (3:1 v/v) containing 0.1% (v/v) formic acid. […] The sample was first monitored for absorbance in the range of 190-400 nm and then directly introduced into the mass spectrometer. ESI-MS detection was performed in positive ion mode for which the capillary voltage was 4 kV, cone voltage was 20 V, desolvation temperature was 350° C. and nitrogen gas flow was maintained at 650 L/hr. Mass scans were collected in the range of 1000-2048 amu within 0.25 s and several of these added to enhanced signal-to-noise ratio. Direct Inhibition of Factor XIa. […] After 10 min incubation, 5 μL factor XIa substrate (345 μM) was rapidly added and the residual FXIa activity was measured from the initial rate of increase in absorbance at 405 nm. […] Relative residual FXIa activity at each concentration of the inhibitor was calculated from the ratio of FXIa activity in the presence and absence of the inhibitor. Logistic equation 1 was used to fit the dose-dependence of residual protease activity to obtain the potency (IC50) and efficacy (ΔY) of inhibition.
Direct Inhibition of Factor XIa by Sulfated QAOs was performed as described in Example 1.
The ability of the sulfated inositol analogs to inhibit factor XIa was studied using the in vitro assay described in Example 1. In this assay, the factor XIa enzyme is anticipated to hydrolyze a particular peptide linkage in the corresponding peptide substrate releasing p-nitroaniline which absorbs at wavelength of 405 nm giving a line slope corresponds to the enzyme activity. The line slope of no inhibitor status is considered as a reference slope and it depends on the relative concentrations of factor XIa enzyme and its substrate. Factor XIa enzyme concentration was decided to get appropriate reference slope of approximately 25-35, whereas the substrate concentration was set to be larger than its affinity to factor XIa enzyme under equilibrium condition, Km. In presence of potential factor XIa inhibitor, the enzyme capacity to hydrolyze the designated peptide linkage in the substrate gets diminished or completely abolished depending on the inhibitor concentration and efficacy. […] Such decreased slope reflects a drop in the catalytic enzyme activity of factor XIa.

factor IXa = biological target: T2, factor IXa (Homo sapiens, UniProt P00740); test: Factor IXa chromogenic substrate hydrolysis assay; type: biochemical
T2 construct: purchased Haematologic Technologies (Essex Junction, Vt.); host or cells: human plasma
T2 sequence (P00740 227-461 limits assumed): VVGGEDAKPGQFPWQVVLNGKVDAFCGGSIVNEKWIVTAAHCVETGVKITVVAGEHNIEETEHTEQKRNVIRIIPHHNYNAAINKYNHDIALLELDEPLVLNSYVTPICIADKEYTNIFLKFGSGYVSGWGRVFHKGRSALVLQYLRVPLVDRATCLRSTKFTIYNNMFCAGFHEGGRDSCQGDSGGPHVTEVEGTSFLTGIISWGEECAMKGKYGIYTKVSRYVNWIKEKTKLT
T2 sequence (P00740 47-191 partner limits assumed): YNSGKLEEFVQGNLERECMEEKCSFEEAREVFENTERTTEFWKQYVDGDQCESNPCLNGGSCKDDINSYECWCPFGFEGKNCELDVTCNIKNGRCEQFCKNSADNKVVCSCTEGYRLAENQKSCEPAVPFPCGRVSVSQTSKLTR

factor XIIa = biological target: T3, factor XIIa (Homo sapiens, UniProt P00748); test: Factor XIIa chromogenic substrate hydrolysis assay; type: biochemical
T3 construct: purchased Enzyme Research Laboratories (South Bend, Ind.)
T3 sequence (P00748 373-615 limits assumed): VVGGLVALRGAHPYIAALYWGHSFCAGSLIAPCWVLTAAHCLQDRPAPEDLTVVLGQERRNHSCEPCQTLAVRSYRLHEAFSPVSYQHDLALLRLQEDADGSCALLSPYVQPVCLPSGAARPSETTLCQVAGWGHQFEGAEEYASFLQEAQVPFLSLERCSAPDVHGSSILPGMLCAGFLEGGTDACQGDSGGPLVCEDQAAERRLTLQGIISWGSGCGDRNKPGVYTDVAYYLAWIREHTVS

human FXIa = biological target: T4, human FXIa (Homo sapiens, UniProt P03951); test: Inhibition of FXIa by SPGG in the presence of UFH (competition); type: biochemical
T4 construct: purchased Haematologic Technologies (Essex Junction, Vt.); host or cells: human plasma
T4 sequence (P03951 19-387 limits assumed): as the sequence (P03951 19-387 limits assumed) above
T4 sequence (P03951 388-625 limits assumed): as the sequence (P03951 388-625 limits assumed) above
Description: as §1
A more quantitative test of competitive binding is the Dixon-Webb relationship, which predicts the effect of an ideal competitor on a measured parameter, e.g. KD or IC50.

human plasma = test: Prothrombin time (PT) plasma clotting assay; type: biochemical
Description: Plasma clotting assays, prothrombin and activated partial thromboplastin time (PT and APTT, respectively), are routinely used to assess the anticoagulation potential of new enzyme inhibitors in an in vitro setting. Whereas PT measures the effect of an inhibitor on the extrinsic pathway of coagulation, APTT measures the effect on the intrinsic pathway.
Prothrombin Time (PT) and Activated Partial Thromboplastin Time (APTT) were assessed as described in Example 1.

human whole blood = test: Thromboelastography of clot formation in whole blood; design: G: unit not given here
Excerpt: To assess the anticoagulation properties of SPGG in human whole blood, thromboelastography was employed. This technique is an ex vivo protocol often utilized to evaluate the anticoagulant activity of low molecular weight heparins (LMWHs) in whole blood.^13-16Thromboelastography monitors the thrombodynamic properties of blood as it is induced to clot under a low shear environment resembling sluggish venous flow. These thrombodynamic properties are expected to dramatically change in presence of anticoagulant in blood. The blood clot formation is recorded as a force transduced on a pin at the center of a blood-containing cup. The kinetics of clot formation and growth as well as the strength and stability of the formed clot are measured through parameters such as maximum amplitude (MA) of clot formation; shear elastic modulus strength (G) of clot; the reaction time (R) for the start of clotting; and the angle α, which is a measure of fibrin build-up and cross-linking (FIG. 8).

C57Bl/6 mice = test: FeCl3 carotid artery thrombosis model; type: in vivo
Description: Exposure of the carotid artery of C57Bl/6 mice to FeCl3 (either 3.5% or 5.0%) results in formation of an occlusive platelet-rich thrombus within 15 minute.

Compound: O=C(OC[C@H]1O[C@@H](OC(=O)c2cc(OS(=O)(=O)O)c(O)c(OS(=O)(=O)O)c2)[C@H](OC(=O)c2cc(OS(=O)(=O)O)c(O)c(OS(=O)(=O)O)c2)[C@@H](OC(=O)c2cc(OS(=O)(=O)O)c(O)c(OS(=O)(=O)O)c2)[C@@H]1OC(=O)c1cc(OS(=O)(=O)O)c(O)c(OS(=O)(=O)O)c1)c1cc(OS(=O)(=O)O)c(O)c(OS(=O)(=O)O)c1 [SPGG, Sulfated Pentagalloylglucoside]
- efficacy of FXIa inhibition (human factor XIa; chromogenic substrate): ~100% and 97%
- ΔY (human factor XIa; efficacy of inhibition): 97.1 ± 3.2
- HS (Hill slope) (human factor XIa; pH 7.4, 37° C.): 1.3 and 1.3 ± 0.1
- IC50 (human factor XIa; pH 7.4, 37° C., S-2366): 689 nM
- IC50 (human factor XIa; translated with average molecular weight 2178 g/mol): ~550 nM and 551 nM
- HS (factor IXa): 2.2 ± 0.6
- IC50 (factor IXa): 655 µM
- ΔY (factor IXa): 100.6 ± 5.8
- selectivity over factor IXa (factor IXa; FXIa vs factor IXa): 950 fold
- HS (factor XIIa): 3.0 ± 1.8
- IC50 (factor XIIa): 147 µM
- ΔY (factor XIIa): 55.7 ± 5.9
- selectivity over factor XIIa (factor XIIa; FXIa vs factor XIIa): 200 fold
- HS (human FXIa; UFH 0 μM): 1.3 ± 0.1
- ΔY (human FXIa; UFH 0 μM): 97.1 ± 3.2
- IC50 (human FXIa; UFH 0 μM, Dixon-Webb equation, read-out: IC50, predicted (converted)): 0.689 µM
- HS (human FXIa; UFH 3.33 μM): 1.7 ± 0.2
- ΔY (human FXIa; UFH 3.33 μM): 92.7 ± 6.4
- IC50 (human FXIa; UFH 3.33 μM, Dixon-Webb equation, read-out: IC50, predicted (converted)): 2.24 µM
- IC50 (human FXIa; UFH 3.33 μM, pH 7.4, 37° C., read-out: IC50 (converted)): 4.02 µM
- HS (human FXIa; UFH 33.3 μM): 4.0 ± 0.9
- ΔY (human FXIa; UFH 33.3 μM): 58.2 ± 6.6
- IC50 (human FXIa; UFH 33.3 μM, pH 7.4, 37° C., read-out: IC50 (converted)): 18 µM and 17.8 µM
- IC50 (human FXIa; UFH […], Dixon-Webb equation, read-out: IC50, predicted (converted)): 0.747 µM
- concentration for 2-fold increase in PT (human plasma): 298 µg/mL
- reduction of G (human whole blood; SPGG 0-280 μg/mL): ~8 fold
- reduction of MA (human whole blood; SPGG 0-280 μg/mL): ~4 fold
- G (human whole blood; SPGG 20 μg/mL): 8.2 × 10^3
- MA (human whole blood; SPGG 20 μg/mL): 62 mm
- R (human whole blood; SPGG 20 μg/mL): 6.6 min
- α (human whole blood; SPGG 20 μg/mL): 51.4 degs
- G (human whole blood; SPGG 135 μg/mL): 5.0 × 10^3
- MA (human whole blood; SPGG 135 μg/mL): 49.8 mm
- R (human whole blood; SPGG 135 μg/mL): 22.8 min
- α (human whole blood; SPGG 135 μg/mL): 30.6 degs
- G (human whole blood; SPGG 190 μg/mL): 3.8 × 10^3
- MA (human whole blood; SPGG 190 μg/mL): 43.5 mm
- R (human whole blood; SPGG 190 μg/mL): 37.8 min
- α (human whole blood; SPGG 190 μg/mL): 9.4 degs
- G (human whole blood; SPGG 280 μg/mL): 0.9 × 10^3
- MA (human whole blood; SPGG 280 μg/mL): 15.1 mm
- R (human whole blood; SPGG 280 μg/mL): 87.1 min
- α (human whole blood; SPGG increased from 0 to 280 μg/mL): less than 9.4 °
- arteries in which thrombosis was prevented (C57Bl/6 mice; 3.5% FeCl3, doses of 0.025 to 0.2 mg injected 10 min before FeCl3): ~100%
- protection of vessels from occlusion (C57Bl/6 mice; 5.0% FeCl3, dose of 0.2 mg): protected all vessels from occlusion
